# Where a SMILES comes first, the peptide text is derived from it. The star is where a group is joined. Cbz = O=C(OCc1ccccc1)*; CH2F = FC*
# How the values were obtained:
# SNP cells [1] = test: Photodynamic cytotoxicity in SNP cells (Cell Counting Kit-8); assay type: cell-based, canine; conditions: 24 h incubation, 650-nm laser 10 mW/cm^2, viability 24 h after PDT
# Method: We seeded 1 × 10^4 SNP cells into each well of 96-well plates (Corning Inc., New York, NY, USA) followed by overnight incubation. Cells were then incubated with various concentrations of G-Ce6 for 24 h at 37 °C. After washing with fresh media, the cells were irradiated with 650-nm light emitted by a semiconductor laser (Osada Electric Co., Ltd., Tokyo, Japan), using an optical fiber with a micro-lens delivery attachment (Pioneer Optics, Inc., Windsor Lock, CT, USA). PDT was performed at 10 mW/cm^2 in cells exposed to six concentrations of NPe6 and G-Ce6 (0, 0.064, 0.32, 1.6, 8.0, or 40.0 μg/mL) using four light doses (0, 1, 5, or 15 J/cm^2). The cells were then incubated for 24 h in the dark prior to examining cell viability using the Cell Counting Kit-8 (Dojindo, Kumamoto, Japan), according to the manufacturer’s instructions.
# [2] = design: method as in earlier work; conditions: cited from earlier work
# SNP cells [3] = test: Effect of a pan-caspase inhibitor on G-Ce6-PDT-induced cell death; assay type: cell-based, canine; conditions: 10 μM Z-VAD-FMK; 8 μg/mL G-Ce6; 5 J/cm^2
# Method: SNP cells were incubated with 8 μg/mL G-Ce6 for 24 h in the presence (10 μM) or absence of Z-VAD-FMK (Medical & Biological Laboratories Co. Ltd., Aichi, Japan), which is a pan-caspase inhibitor. After washing with fresh media, the cells were irradiated with 650-nm laser light (10 mW/cm^2, 5 J/cm^2) emitted by a semiconductor laser, using an optical fiber with a microlens delivery attachment. Apoptosis was assessed at 4 h after laser irradiation using the Muse Annexin V and Dead Cell Assay kit.
compound,measurement,setting,value
"C=Cc1c(C)c2cc3nc(c(CC(=O)N[C@@H](CC(=O)[O-])C(=O)[O-])c4[nH]c(cc5nc(cc1[nH]2)C(C)=C5CC)c(C)c4C(=O)[O-])[C@@H](CCC(=O)[O-])[C@@H]3C.[Na+].[Na+].[Na+].[Na+] [NPe6, mono-L-aspartyl chlorin e6, reference compound]",IC50 against SNP cells,SNP cells [1]; light dose 1 J/cm^2,75.2 µg/mL
same,IC50 against SNP cells,SNP cells [1]; light dose 5 J/cm^2,30.4 µg/mL
same,IC50 against SNP cells,SNP cells [1]; light dose 15 J/cm^2,30.6 µg/mL
porfimer sodium,AUC,[2],1670.2 ± 71.6 µg·h/mL
same,T1/2,[2],44.22 ± 8.10 h
"COC(=O)C[C@H](NC(=O)[C@H](C)NC(=O)[C@@H](NC(=O)OCc1ccccc1)C(C)C)C(=O)CF [Z-VAD-FMK, reference compound] (Cbz-Val-Ala-Asp(OMe)-CH2F)",Influence on number of Annexin V-positive cells and cytotoxicity induced by G-Ce6-mediated PDT,SNP cells [3],did not influence
